# Entries after “also recorded” stand apart in the source; their conditions may differ.
# Legend:
# [1] = system: myocardial infarction induced interstitial fibrosis; assay: Anti-fibrosis effect in a rat model of myocardial infarction (interstitial fibrosis, Masson's Trichrome staining); format: in vivo
# From the text: The present study assessed the effect of dextran sulfate in inhibiting or reducing fibrosis in a rat model of myocardial infarction (MI).
# The myocardial infarction model in rat involved ligations of the left coronary artery permanently with an intramural stitch. The surgery caused obstruction of the blood flow and subsequently to severe ischemic damage and cardiac walls infarct.
# In total 120 female SD rats having an average body weight of 178 g at study initiation (Day 0) were obtained from Harlan Laboratories, Israel. Animals were fed ad libitum a commercial rodent diet (Teklad Certified Global 18% Protein Diet). Animals had free access to autoclaved and acidified drinking water (pH between 2.5 and 3.5) obtained from the municipality supply. Animals were housed under standard laboratory conditions, air conditioned and filtered (HEPA F6/6) with adequate fresh air supply (minimum air changes/hour). Animals were kept in a climate controlled environment with a temperatures range of 20-24° C. and RH range of 30-70% with 12 hours light and 12 hours dark cycle.
# Dextran sulfate with an average molecular weight within a range of 5-7 kDa was dissolved in 0.9% NaCl (saline) (Teva Pharmaceutical Industries Ltd) to be injected subcutaneous at doses of 15 mg/kg or 3 mg/kg. […]
# Masson's Trichrome Staining was used for fibrosis evaluation. […] The sections were visualized in a computer-imaging system and infarct size was marked and calculated using the ImageJ program. For each animal, five serial sections including one containing the ligature were analyzed and the mean value of all sections for each heart was treated as one value for statistical analysis. […]
# Interstitial fibrosis in the marginal area of the infarct was estimated manually in heart sections stained with Masson's Trichrome Staining. The area of interstitial fibrosis was calculated as the percent of the total area of the left ventricle. For each rat five cross-sections were analyzed.
# [2] = orally delivered; mice, rats, hamsters and guinea pigs; cited from earlier work
substance,measurement,setting,value
Dextran sulfate,interstitial fibrosis compared to vehicle control group 1M (in words),"[1]; group 2M: 15 mg/kg s.c., 3 times a week for 3 weeks, P<0.01, five weeks post-infarction",significant suppression of myocardial infarction induced interstitial fibrosis; also recorded: significantly decreased fibrosis
same,extent of interstitial fibrosis (area of interstitial fibrosis as percent of the total area of the left ventricle),"[1]; group 2M: 15 mg/kg s.c., 3 times a week for 3 weeks, female SD rats, margin zone of infarct, day 36 after MI, vehicle group 1M 22.7±1.9%",11.9±0.9%
same,extent of interstitial fibrosis compared to vehicle control group 1M (in words),"[1]; groups 3M-5M: 15 mg/kg s.c. 3 times a week for 1 week, 15 mg/kg single dose, 3 mg/kg 3 times a week for 1 week, day 36 after MI","also lower in the other dextran sulfate treated groups 3M-5M, although the difference was not significant"
same,induction of colitis and intestinal fibrosis,[2],known to induce colitis and intestinal fibrosis

# — patent US10478451B2, “Use of dextran sulfate” (TX Medic AB, priority 2015, dated 2019)
